The source of these data is PubChem BioAssay (NCI).

What all share (assay): NCI anticancer screen, dose series, 48 h
The test system of experiment [1] is SF-268 CNS.
Experiment [2] relates to HOP-62 NSCLC.
Experiment [3] concerns MOLT-4 leukemia.
Experiment [4] concerns HOP-92 NSCLC.
In experiment [5] the test system is HCT-116 colon.
Experiment [6] has as its system BT-549 breast.
In experiment [7] the test system is SNB-75 CNS.

Structures are written as SMILES.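 48-hour exposure; five concentrations; linearly interpolated endpoints. At the TGI there is no net growth.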

With `CC(C)=Cc1cc(C)c2c3c(c(O)c(O)c(C)c13)C(C)=CC2=O`, the TGI was 60.3 µM in experiment [1]; 47.2 µM in experiment [2]; 54.7 µM in experiment [3]; 38.6 µM in experiment [4]; 37.7 µM in experiment [5].

Consider `CC[C@H](C)C1=C(OC(C)=O)[N@+]2([O-])Oc3ccc(-c4c(O)c(O)c(-c5ccc(OC(C)=O)cc5)c(OC(C)=O)c4OC(C)=O)cc3O[C@]2([C@@H](C)CC)C(=O)N1O`, for which the TGI was above 50 µM in experiment [1]; above 50 µM in experiment [2]; above 50 µM in experiment [3]; above 50 µM in experiment [6]; 23 µM in experiment [4]; 19.5 µM in experiment [5].

`COc1ccc2c(c1)c1c(n2CCN2CCOCC2)-c2cccc(OC)c2CC1`: the TGI was above 100 µM in experiment [1]; above 100 µM in experiment [2]; 76.7 µM in experiment [3]; above 100 µM in experiment [6]; above 100 µM in experiment [4]; above 100 µM in experiment [5].

As for `O/N=C(/C(Cl)=C(Cl)Cl)C(Cl)Cl`, the TGI in experiment [1] is 36.3 µM; in experiment [2], 46.9 µM; in experiment [3], 37.1 µM; in experiment [6] it was 41.4 µM; in experiment [7] it was 43.7 µM; in experiment [5] it was 34.8 µM.

As to `COCCOC(=O)NCn1cc(-c2ccccc2)nn1`, the TGI in experiment [2], in experiment [3], in experiment [6], in experiment [4] and in experiment [5] was above 100 µM each time.

Take `COC(=O)c1cc(OS(=O)(=O)C(F)(F)F)c(=O)n2c1CCCC2`: the TGI in experiment [1], in experiment [2], in experiment [3], in experiment [6], in experiment [7] and in experiment [5] was above 100 µM each time.

Turning to `CC(C)=NNc1snnc1C(N)=O`, the TGI in experiment [1], in experiment [2], in experiment [3], in experiment [6], in experiment [7] and in experiment [5] was above 100 µM throughout.

Take `CNCCN[C@@H]1c2cc3c(cc2[C@@H](c2cc(OC)c(O)c(OC)c2)[C@H]2C(=O)OC[C@@H]21)OCO3`: the TGI is above 25.6 µM in experiment [1]; 0.678 µM in experiment [2]; 0.0587 µM in experiment [3]; 0.814 µM in experiment [6]; 1.12 µM in experiment [7]; 5.27 µM in experiment [5].

Consider `O=C(Nn1c(-c2cccs2)nc2ccc(I)cc2c1=O)c1ccccc1`, for which the TGI in experiment [1] is above 100 µM; in experiment [2] it was above 100 µM; in experiment [3], above 100 µM; in experiment [6], 51.9 µM; in experiment [4] it was 51.7 µM; in experiment [5], above 100 µM.

Consider `O=C(CC(O)(C(F)(F)F)C(F)(F)Cl)CC(O)(C(F)(F)F)C(F)(F)Cl` (stereo unspecified), for which the TGI in experiment [1] is above 10 µM; in experiment [2] it was 5.85 µM; in experiment [3], above 10 µM; in experiment [4], 4.57 µM; in experiment [7], above 10 µM; in experiment [5] it was 5.31 µM.

For `O=C1c2c(ccc3c2CCC3)CC1Cc1ccc2c(c1)CCC2` (stereo unspecified), the TGI is above 100 µM in experiment [1]; 94.2 µM in experiment [2]; 51.6 µM in experiment [3]; above 100 µM in experiment [6]; 56 µM in experiment [7]; 47.2 µM in experiment [5].

In the case of `CCN(CC)Cc1ccccc1CC(=O)N1c2ccccc2C(=O)Nc2cccnc21`, the TGI in experiment [1], in experiment [2], in experiment [3], in experiment [4] and in experiment [5] was above 100 µM each time.

With `CC(C)(C)c1cc2c(c(C(C)(C)C)c1O)CC(=O)O2`, the TGI is above 100 µM in experiment [1]; 92.8 µM in experiment [2]; above 100 µM in experiment [3]; 17.9 µM in experiment [4]; above 100 µM in experiment [5].

As for `CC(=O)OC1OC(c2ccoc2)C[C@@]12C1CCC3O[C@]3(C)[C@]1(C)[C@H](OC(C)=O)[C@H](OC(C)=O)[C@H]2C` (stereo partly specified), the TGI in experiment [2], in experiment [3], in experiment [6], in experiment [4] and in experiment [5] was above 37.5 µM each time.

`S=C=Nc1ccc(CSc2nc3ccccc3[nH]2)cc1`: the TGI in experiment [1] was 37.8 µM; in experiment [2] it was 32.1 µM; in experiment [3], 55.1 µM; in experiment [4], 32 µM; in experiment [7] it was 32 µM; in experiment [5], 44.5 µM.

Regarding `COC(=O)CCC1=NCC(C)(C)O1`, the TGI in experiment [1], in experiment [2], in experiment [3], in experiment [6], in experiment [7] and in experiment [5] was above 10 µM throughout.

For `CCOC(=O)/C(=C\NC(C)(C)C)c1nc2ccccc2[nH]1`, the TGI in experiment [1] turned out to be 55.9 µM; in experiment [2], 58.5 µM; in experiment [6], 68.3 µM; in experiment [4], 56.8 µM; in experiment [7] it was 68.7 µM; in experiment [5] it was 95.2 µM.

Consider `Cc1ccc(S(=O)(=O)NC(=O)Nc2cccc(S(N)(=O)=O)c2)cc1`, for which the TGI in experiment [1], in experiment [2], in experiment [3], in experiment [4], in experiment [7] and in experiment [5] was above 100 µM throughout.

As for `c1csc(-c2nccc3c2[nH]c2ccccc23)c1`, the TGI in experiment [1] was determined as 56.7 µM; in experiment [2] it was 39.2 µM; in experiment [3] it was 51.5 µM; in experiment [4], 41.5 µM; in experiment [7], 42.8 µM; in experiment [5], 31.8 µM.

Regarding `N#Cc1cc2c(cc1C#N)/C(=N\c1cccc(N)n1)N=C2Nc1cccc(N)n1`, the TGI was 49.2 µM in experiment [1]; 70.2 µM in experiment [2]; above 100 µM in experiment [3]; 84.3 µM in experiment [6]; 76.1 µM in experiment [7]; 26.7 µM in experiment [5].

For the compound `N#Cc1c(C#N)c(-c2ccccc2)n(Cc2ccccc2)c1N`, the TGI in experiment [1] was above 100 µM; in experiment [2], above 100 µM; in experiment [3], above 100 µM; in experiment [6], above 100 µM; in experiment [7], 64.7 µM; in experiment [5], above 100 µM.
